Experimental data taken from patent publication US12403130B2, “Pharmaceutical combinations for treating cancer” (Purdue Pharmaceutical Products L.P., priority 2014, dated 2025).
Like-named read-outs stand apart in the source and are kept apart here.

How the values were obtained:
[1] = system: U251MG glioblastoma cell line; assay: IC50 against glioblastoma cell line U251MG; format: cell-based
[2] = system: U87G glioblastoma cell line; assay: IC50 against glioblastoma cell line U87G; format: cell-based
[3] = system: T98G glioblastoma cell line; assay: IC50 against glioblastoma cell line T98G; format: cell-based
[4] = system: T98G, U251MG and U87MG glioblastoma cell lines; assay: Radiotherapy and EDO-S101 against glioblastoma cell lines in vitro, surviving fraction; format: cell-based; details: radiotherapy in combination with EDO-S101 (5 μM or 10 μM) compared to radiotherapy alone
Procedure: FIG. 15 is a plot of % surviving fraction of in vitro T98G, U251MG and U87MG glioblastoma cell lines against dose of radiotherapy (Gy) in combination with two different concentrations of the compound of formula I (EDO-S101) against a control with radiotherapy alone.

[5] = system: U251MG mouse xenograft model; assay: U251MG subcutaneously inoculated xenograft, time to progression; format: in vivo
Procedure: (§1) Subcutaneously Inoculated Xenografts
(§2) • Vehicle (control) • Radiotherapy (2Gy/5 consecutive days) • Temozolamide (16 mg/Kg for 5 consecutive days, po) • Temozolamide+radiotherapy • EDO-S101 (60 mg/Kg at day 1, 8 and 15 every 28 days, iv) • EDO-S101+radiotherapy

[6] = system: U87MG mouse xenograft model; assay: U87MG subcutaneously inoculated xenograft, time to progression; format: in vivo
Procedure: as §1, §2

[7] = system: Vk*MYC multiple myeloma; assay: Vk*MYC mouse model of multiple myeloma; format: in vivo; details: mice receiving only two doses, one week apart
Description: A genetic rearrangement of the MYC locus, resulting in dysregulated expression of MYC, is the most common mutation in human multiple myeloma. The genetically engineered Vk*MYC mouse model is based on dysregulation of MYC, and has been extensively validated as a clinically and biologically faithful model of untreated multiple myeloma. Nine drugs or classes of drugs (DNA alkylators, glucocorticoids, proteasome inhibitors, IMiDs, nab-paclitaxel, histone deacetylase inhibitors, TACI-Ig, perifosine and SNS-032, a CDK2, 7, 9 inhibitor) have been previously reported with more than a 20% partial response rate in Vk*MYC MM. Among those, the first five also have greater than 20% PR in patients with multiple myeloma for a positive predictive value of 56%.

[8] = system: Vk12653 transplant model of relapsed/refractory multiple myeloma; assay: Vk12653 transplant model of relapsed/refractory multiple myeloma; format: in vivo; details: very aggressive, multi-drug resistant model
[9] = system: multiple myeloma cell lines; details: WO-A-2010/085377; in vitro; cited from earlier work
[10] = combination with radiotherapy (2Gy/5 consecutive days), temozolamide 16 mg/Kg 5 consecutive days po, EDO-S101 60 mg/Kg day 1, 8, 15 iv
[11] = drug alone, EDO-S101 60 mg/Kg at day 1, 8 and 15 every 28 days, iv
[12] = unit not given for temozolamide

Row | Structure (SMILES) | IC50 ([1]; Homo sapiens, U-251) [µM] | IC50 [2] [µM] | IC50 ([3]; Homo sapiens) [µM] | % survival rate for the glioblastoma cells (FIG. 15) [4] | time to progression of the tumours [5, 10] | time to progression of the tumours [5, 11] | time to progression of the tumours [6, 10] | time to progression of the tumours [6, 11] [days] | duration of response [7] | rate of response [7] | single agent activity [8] | activity relative to the activity shown by bendamustin [9] | IC50 [1] [µM] | IC50 [3] [µM] | IC50 [1, 12] [µM] | IC50 [2, 12] [µM] | IC50 [3, 12] [µM] | time to progression of the tumours ([5]; mouse, in vivo) [days] | time to progression of the tumours ([6]; mouse, in vivo) [days]
1 | Cn1c(CCCCCCC(=O)NO)nc2cc(N(CCCl)CCCl)ccc21 [EDO-S101] | 6.6 | 1.36 | 7.7 | considerably reduced | over 50 days | over 50 days | over 50 days | 40 | more than three months | high rate of response | single agent activity | 35-100 × | – | – | – | – | – | – | –
2 | Cn1c(CCCC(=O)O)nc2cc(N(CCCl)CCCl)ccc21 [bendamustin] | – | 50 | – | – | – | – | – | – | – | – | – | – | 30 | 52 | – | – | – | – | –
3 | Cn1nnc2c(C(N)=O)ncn2c1=O [temozolamide] | – | – | – | – | – | – | – | – | – | – | – | – | – | – | 20 | 20 | > 100 | 42 | 35
